System: Bacillus thuringiensis
Assay: Antibacterial activity against Bacillus thuringiensis assessed as inhibition of bacterial growth by agar plate method; call rule not given here
Assay type: functional, organism-based

SMILES | Activity
O=c1cc(C(Cl)Cl)cc(CO)o1 | Not active; Detectable Activity Not Observed
CC/C=C(\C)[C@@H](O)[C@@H](O)C1=CC(=O)/C(=C\C(Cl)Cl)O1 | Moderate_effect
CC[C@H](O)/C(C)=C/[C@@H](O)c1cc(C(Cl)Cl)cc(=O)o1 | Not active; Detectable Activity Not Observed
CC[C@@H](O)[C@](C)(O)/C=C/C=C\[C@H](O)C(Cl)Cl | Not active; Detectable Activity Not Observed
CC[C@@H](O)/C(C)=C/[C@@H](O)c1cc(C(Cl)Cl)cc(=O)o1 | Not active; Detectable Activity Not Observed
CC[C@@H](O)[C@@](C)(O)/C=C/C=C\[C@H](O)C(Cl)Cl | Not active; Detectable Activity Not Observed
CC/C=C(\C)[C@@H](O)[C@@H](O)c1cc(C(Cl)Cl)cc(=O)o1 | Not active; Detectable Activity Not Observed
CC/C=C(\C)[C@@H](O)[C@@H](O)C1=CC(=O)/C(=C/C(Cl)Cl)O1 | Moderate_effect

From ChEMBL document CHEMBL6182858, “Dichloromethyl-Containing Derivatives from Streptomyces agglomeratus 5-2-6, a Soil Bacterium Isolated from the Qinghai-Tibet Plateau” (J Nat Prod, 2025)
